Test results from US6281234A, “(2-Acylaminothiazole-4-yl)acetic acid derivative” (American Home Products Corporation, priority 1999, dated 2001).

Molecular target: T1, Recombinant Rat Protein Tyrosine Phosphatase 1B (rPTP1B) (Rattus norvegicus, UniProt P20417)
T1 construct: laboratory of Dr. Barry Goldstein, Thomas Jefferson University (obtained from, not a commercial purchase)
T1 sequence (P20417 1-432): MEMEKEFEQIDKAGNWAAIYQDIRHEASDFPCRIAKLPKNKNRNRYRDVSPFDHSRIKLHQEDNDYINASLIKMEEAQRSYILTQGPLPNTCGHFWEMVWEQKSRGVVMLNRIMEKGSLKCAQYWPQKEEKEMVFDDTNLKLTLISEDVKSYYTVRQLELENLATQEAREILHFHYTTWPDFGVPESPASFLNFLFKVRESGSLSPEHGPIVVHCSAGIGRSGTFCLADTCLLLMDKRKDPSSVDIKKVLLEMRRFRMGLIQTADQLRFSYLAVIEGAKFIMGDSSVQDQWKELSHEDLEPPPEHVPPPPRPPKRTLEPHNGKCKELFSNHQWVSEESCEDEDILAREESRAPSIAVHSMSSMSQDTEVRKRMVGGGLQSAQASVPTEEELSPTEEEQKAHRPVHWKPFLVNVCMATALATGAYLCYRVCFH
Experiment: Inhibition of recombinant rat PTP1B (rPTP1B) activity using p-nitrophenylphosphate as substrate
Format: biochemical
Conditions: p-nitrophenyl phosphate substrate, pH 7.4, 37° C., 30 min; for inhibition at 25 µM: pH 7.4, All compounds administered at 25 μM; for % inhibition: All compounds administered at 25 μM
Experimental: Inhibition of Recombinant Rat Protein Tyrosine Phosphatase 1B (rPTP1B) Activity Using p-nitrophenylphosphate as a Substrate.
Measurement of pNPPase Activity.
The reaction is started by the addition of p-nitrophenyl phosphate and after 30 minutes at 37° C., the reaction is terminated by adding 1 ml of 0.1 N NaOH. […] The samples are read at 410 nm in a spectrophotometer and are evaluated based on a calibration curve of p-nitrophenol standard solution.
Compounds were screened robotically at a single concentration of ~25 μM. The results are expressed as percent of control, in that the amount of p-nitrophenol formed in the compound treated samples (nmol/minute/mg protein) is compared to the amount (nmol/minute/mg protein) formed in the untreated samples. p-Nitrophenylphosphatase activity is also determined in each experiment and is expressed per minute per mg protein.

SMILES	inhibition at 25 µM [%]	other results
CCCCCC/C=C/CCCCCCCC(=O)Nc1nc(CC(=O)O)cs1 [Example 7, 2-[((E)-1-Oxo-9-hexadecenyl)amino]-4-thiazoleacetic Acid]	83.8	
CCCCCCCC/C=C/CCCCCCCC(=O)Nc1nc(CC(=O)O)cs1 [Example 2, 2-[((E)-1-Oxo-9-octadecenyl)amino]-4-thiazoleacetic Acid]		% inhibition (25 µM): 93.9%
CCCCCCCCC#CCCCCCCCC(=O)Nc1nc(CC(=O)O)cs1 [Example 4]	84.8	
CC/C=C\C/C=C\C/C=C\CCCCCCCC(=O)Nc1nc(CC(=O)O)cs1 [Example 9, 2-[((Z,Z,Z)-1-Oxo-9,12,15-octadecatrienyl)amino]-4-thiazoleacetic Acid]	92.4	
[Na+].[Na+].[Na+].[O]=[V]([O-])([O-])[O-] [Na3 VO4, reference compound]		% inhibition: 86.3%
CCCCCC/C=C\CCCCCCCC(=O)Nc1nc(CC(=O)O)cs1 [Example 6, 2-[((Z)-1-Oxo-9-hexadecenyl)amino]-4-thiazoleacetic Acid]	93.8	
CCCCCCCC/C=C/CCCCCCCC(=O)Nc1nc(CC(=O)O)cs1 [Example 3]		% inhibition (25 µM): 58.16%

Now from value to compound, other results behind:

inhibition at 25 µM [%]	SMILES	other results
96.6	CCCCCC/C=C/CCCCCCCCCC(=O)Nc1nc(CC(=O)O)cs1 [Example 8, 2-[((E)-1-Oxo-11-octadecenyl)amino]-4-thiazoleacetic Acid]	
95	CCCCCCCCCCC/C=C\CCCCC(=O)Nc1nc(CC(=O)O)cs1 [Example 5]	
93.4	CCCCCCCC/C=C\CCCCCCCC(=O)Nc1nc(CC(=O)O)cs1 [Example 1, 2-[((Z)-1-Oxo-9-octadecenyl)amino]-4-thiazoleacetic Acid]	
